“And” between values parts separate entries of the source, which are not always exact repeats. Equal values may be shown once. Where a name gives a salt, the structure may show the parent alone. Read-outs that look alike come from different tables or passages of the source.
Legend:
α-glucosidase = α-glucosidase (Saccharomyces cerevisiae, UniProt P53341); experiment: α-Glucosidase inhibition assay; assay type: biochemical
Method: α-Glucosidase (0.5 unit/mL) was mixed with phosphate buffer (0.1 M, pH 6.9) to make enzyme stock solution. Likewise, a substrate solution (p-nitrophenyl-α-D-glucopyranoside) was also prepared in phosphate buffer. Each of the sample dilutions was mixed with 1 mL of the enzyme solution separately and incubated at 37 °C for 15 min. Sodium carbonate solution (80 µL of 0.2 M) was added to the reaction mixture to stop the reaction, and the absorbance was measured at 405 nm. The % enzyme inhibition was calculated as (5) % inhibition=Control absorbance−Test absorbance /Control absorbance × 100

α-amylase = experiment: α-Amylase inhibition assay (DNS method); assay type: biochemical; details: for Percent Inhibition of α-Amylase (Mean ± S.E.M): n = 3
Method: The degree of inhibition was assessed by quantifying maltose equivalents using a slightly modified dinitrosalicylic acid (DNS) method. From each of the sample dilutions, 1 mL was pre-incubated with 1 U/mL α-amylase for half an hour. After incubation, 1 mL of 1% of starch solution was added to the mixture and further incubated for 10 min. To stop the reaction, 1 mL DNS reagent was added to the reaction mixture and heated in a boiling water bath for 5 min. […] The absorbance was measured at 540 nm.

[1] = DPPH free radical scavenging assay; details: for DPPH Percent Inhibition (Mean ± S.E.M): n = 3
Method: (§1) The free radical scavenging capacity of the isolated compounds was determined using DPPH and ABTS assays. To prepare the DPPH stock solution, 30 mg of DPPH was dissolved in 100 mL of methanol. Likewise, to prepare ABTS stock solution, 383 mg of 7 mM ABTS and 66.2 mg of 2.45 mM K2S2O8 were taken, each of them was individually dissolved in 100 mL of methanol and mixed together thoroughly. For the free radical development, the solutions were kept in dark for one day. Different dilutions (62.5, 125, 250, 500, 1000 μg/mL) from each of the sample stock solutions (5 mg/5 mL of methanol) were prepared. Each of the dilutions (0.8 mL) was mixed with 0.8 mL of DPPH stock solution and incubated for 15 min and their absorbance was recorded at 515 nm. Likewise, 0.8 mL of each of the same dilutions was mixed with 2 mL of ABTS solution, incubated for 25 min and their absorbance was recorded at 745 nm. The percent scavenging potentials of compounds were calculated using the following equation:(1) Percent scavenging= A−B/A × 100, where A is the absorbance of oxidized stock (DPPH/ABTS) used as control, and B is the absorbance of the sample.

[2] = ABTS free radical scavenging assay; details: for ABTS Percent Inhibition (Mean ± S.E.M): n = 3
Method: as §1

[3] = target: T1, acetylcholinesterase (AChE) (Homo sapiens, UniProt P22303); experiment: biochemical; details: for inhibition at 250 µg/mL / inhibition at 500 µg/mL / inhibition at 1000 µg/mL / inhibition at 125 µg/mL: read-out: Percent AChE (Mean ± SEM), %inhibition
Method: (§2) AChE and BChE were used as representative enzymes to determine the anticholinesterase effect of isolated compounds using Ellman’s assay with slight modifications. Sample stocks (5 mg/5 mL in methanol) were prepared and a range of serial dilutions (125, 250, 500, 1000 μg/mL) was made from each of them. Phosphate buffer (6.8 pH) was used for making the enzyme and substrate solutions.

[4] = target: T2, butyrylcholinesterase (BChE) (Homo sapiens, UniProt P06276); experiment: Butyrylcholinesterase inhibition, Ellman's assay; assay type: biochemical; details: for inhibition at 125 µg/mL / inhibition at 250 µg/mL / inhibition at 500 µg/mL / inhibition at 1000 µg/mL: read-out: Percent BChE (Mean ± SEM), %inhibition
Method: as §2

[5] = target: T1, acetylcholinesterase (AChE); experiment: biochemical; details: read-out: Percent AChE (Mean ± SEM), %inhibition
[6] = target: T2, butyrylcholinesterase (BChE); experiment: Butyrylcholinesterase inhibition, Ellman's assay; assay type: biochemical; details: read-out: Percent BChE (Mean ± SEM), %inhibition
[7] = read-out: AChE IC50 (converted)

Chain of α-glucosidase (P53341 whole entry): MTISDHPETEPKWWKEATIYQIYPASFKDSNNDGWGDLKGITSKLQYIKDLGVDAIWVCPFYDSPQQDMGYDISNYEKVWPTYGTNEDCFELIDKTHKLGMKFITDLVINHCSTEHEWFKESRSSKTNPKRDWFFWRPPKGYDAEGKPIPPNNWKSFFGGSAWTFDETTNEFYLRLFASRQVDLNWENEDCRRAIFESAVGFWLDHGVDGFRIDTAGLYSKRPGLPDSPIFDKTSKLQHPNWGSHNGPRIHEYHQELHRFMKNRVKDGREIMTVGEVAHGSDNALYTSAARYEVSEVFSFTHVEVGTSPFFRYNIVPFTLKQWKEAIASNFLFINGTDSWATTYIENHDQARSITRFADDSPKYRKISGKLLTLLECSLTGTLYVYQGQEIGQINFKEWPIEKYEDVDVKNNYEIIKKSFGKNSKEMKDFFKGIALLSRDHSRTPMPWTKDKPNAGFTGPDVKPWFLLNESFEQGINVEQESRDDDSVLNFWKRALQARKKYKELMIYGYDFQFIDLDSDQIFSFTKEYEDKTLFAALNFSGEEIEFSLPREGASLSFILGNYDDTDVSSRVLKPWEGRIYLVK
T1 sequence (P22303 32-614, species assumed): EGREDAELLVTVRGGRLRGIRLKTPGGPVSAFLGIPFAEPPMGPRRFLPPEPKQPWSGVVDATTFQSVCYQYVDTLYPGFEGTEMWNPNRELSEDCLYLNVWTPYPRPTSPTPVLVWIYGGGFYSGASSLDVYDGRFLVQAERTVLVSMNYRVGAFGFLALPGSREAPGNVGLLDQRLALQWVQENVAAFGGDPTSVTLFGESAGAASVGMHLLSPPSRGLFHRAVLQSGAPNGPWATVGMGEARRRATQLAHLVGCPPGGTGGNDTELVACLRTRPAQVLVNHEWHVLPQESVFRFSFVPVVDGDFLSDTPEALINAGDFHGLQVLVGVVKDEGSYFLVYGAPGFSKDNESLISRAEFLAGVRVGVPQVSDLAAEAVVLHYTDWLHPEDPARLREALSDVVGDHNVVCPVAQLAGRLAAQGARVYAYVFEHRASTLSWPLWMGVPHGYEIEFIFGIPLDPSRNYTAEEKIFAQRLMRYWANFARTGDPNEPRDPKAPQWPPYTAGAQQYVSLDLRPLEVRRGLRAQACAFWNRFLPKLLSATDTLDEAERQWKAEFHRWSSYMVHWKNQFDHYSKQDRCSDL
T2 sequence (P06276 29-602, species assumed): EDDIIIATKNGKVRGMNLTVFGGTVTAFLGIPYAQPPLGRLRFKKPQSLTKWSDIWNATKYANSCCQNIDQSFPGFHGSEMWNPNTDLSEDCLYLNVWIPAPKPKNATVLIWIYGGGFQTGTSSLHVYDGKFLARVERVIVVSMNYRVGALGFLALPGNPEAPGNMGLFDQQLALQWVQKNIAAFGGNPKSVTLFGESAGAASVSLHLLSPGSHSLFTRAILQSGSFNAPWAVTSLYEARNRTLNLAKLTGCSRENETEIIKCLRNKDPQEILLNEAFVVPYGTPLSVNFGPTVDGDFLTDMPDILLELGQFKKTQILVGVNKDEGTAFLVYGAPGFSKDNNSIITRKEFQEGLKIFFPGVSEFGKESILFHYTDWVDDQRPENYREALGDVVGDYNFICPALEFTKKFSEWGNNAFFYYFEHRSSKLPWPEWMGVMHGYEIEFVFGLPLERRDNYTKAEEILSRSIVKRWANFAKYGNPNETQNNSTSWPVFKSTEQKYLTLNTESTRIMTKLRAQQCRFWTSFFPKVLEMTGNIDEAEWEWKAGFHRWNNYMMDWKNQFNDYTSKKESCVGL

Compound | Percent Inhibition of α-Amylase (Mean ± S.E.M) (α-amylase; 62.5 μg/mL) | Percent Inhibition of α-Amylase (Mean ± S.E.M) (α-amylase; 125 μg/mL) [%] | Percent Inhibition of α-Amylase (Mean ± S.E.M) (α-amylase; 250 μg/mL) [%] | Percent Inhibition of α-Amylase (Mean ± S.E.M) (α-amylase; 500 μg/mL) [%] | Percent Inhibition of α-Amylase (Mean ± S.E.M) (α-amylase; 1000 μg/mL) [%] | DPPH IC50 [1] [µg/mL] | DPPH Percent Inhibition (Mean ± S.E.M) ([1]; 62.5 μg/mL) [%] | DPPH Percent Inhibition (Mean ± S.E.M) ([1]; 125 μg/mL) [%] | DPPH Percent Inhibition (Mean ± S.E.M) ([1]; 250 μg/mL) [%] | DPPH Percent Inhibition (Mean ± S.E.M) ([1]; 500 μg/mL) [%] | DPPH Percent Inhibition (Mean ± S.E.M) ([1]; 1000 μg/mL) | ABTS IC50 [2] [µg/mL] | ABTS Percent Inhibition (Mean ± S.E.M) ([2]; 62.5 μg/mL) [%] | ABTS Percent Inhibition (Mean ± S.E.M) ([2]; 125 μg/mL) [%] | ABTS Percent Inhibition (Mean ± S.E.M) ([2]; 250 μg/mL) [%] | ABTS Percent Inhibition (Mean ± S.E.M) ([2]; 500 μg/mL) [%] | ABTS Percent Inhibition (Mean ± S.E.M) ([2]; 1000 μg/mL) [%] | IC50 [3, 7] [µM] | IC50 [4] [µM] | α-Amylase IC50 (α-amylase) [µg/mL] | other results
C[C@H]1O[C@H](O[C@H]2[C@H](O)[C@@H](O)[C@@H](O[C@H]3[C@H](O)[C@@H](O)C(O)O[C@@H]3CO)O[C@@H]2CO)[C@H](O)[C@@H](O)[C@@H]1N[C@H]1C=C(CO)[C@@H](O)[C@H](O)[C@H]1O (stereo partly shown) [Acarbose, reference compound] | 48.13 ± 2.09% | 57.03 ± 1.19 | 66.37 ± 1.18 | 77.11 ± 1.41 | 92.12 ± 0.83 | – | – | – | – | – | – | – | – | – | – | – | – | – | – | – | Percent Inhibition of α-Glucosidase (Mean ± S.E.M) (α-glucosidase): 93.72 ± 1.03% and 67.16 ± 1.58% and 58.73 ± 1.09% and 48.76 ± 2.20%
O=C1O[C@H]([C@@H](O)CO)C(O)=C1O [Ascorbic Acid, reference compound] | – | – | – | – | – | 35 | 55.12 ± 1.30 | 65.35 ± 1.08 | 78.63 ± 1.48 | 87.87 ± 1.64 | 94.14 ± 1.76% | 35 | 55.41 ± 1.39 | 63.30 ± 2.75 | 75.14 ± 3.16 | 83.45 ± 2.26 | 93.07 ± 0.53 | – | – | – | –
CC(C)CCCCC1CC2CC(C)(C)C3C4CC(C)(C)C5CC(O)CC(C)C5C4CC(C)C3C2C1 (stereo not shown) [Compound IX, 5,5,7,7,11,13-hexamethyl-2-(5-methylhexyl)icosahydro-1H-cyclopenta[a]chrysen-9-ol] | 40.13 ± 1.27 % | 50.61 ± 1.52 | 59.14 ± 0.82 | 65.13 ± 1.43 | 70.21 ± 1.91 | 76 | 47.85 ± 2.61 | – | 64.11 ± 2.91 | 72.19 ± 2.17 | 80.21 ± 040 ^ns percent | 76 | 47.83 ± 2.26 | 57.19 ± 2.01 | 62.24 ± 2.30 | 71.29 ± 1.11 | 79.23 ± 1.01 | 186 | 186 | 122 | inhibition at 250 µg/mL [3]: 63.1 ± 1.51%; inhibition at 500 µg/mL [3]: 71.3 ± 1.37%; inhibition at 1000 µg/mL [3]: 78.11 ± 0.61%; inhibition at 125 µg/mL [4]: 55.4 ± 1.01%; inhibition at 250 µg/mL [4]: 63 ± 1.45%; inhibition at 500 µg/mL [4]: 70.2 ± 0.71%; inhibition at 1000 µg/mL [4]: 78 ± 2.62%; inhibition at 62.5 µg/mL [5]: 46 ± 1.71%; inhibition at 62.5 µg/mL [6]: 45.9 ± 1.26%
CCCCCCCCCCCCCCCCCCCCCC(=O)O [Compound X, docosanoic acid] | 40.01 ± 2.06 ^ns % | 50.11 ± 1.31 | 59.11 ± 2.13 | 65.19 ± 1.28 | – | 95 | 46.17 ± 3.01 | – | 60.61 ± 0.71 | 69.19 ± 2.27 | 78.81 ± 2.10% | 95 | 46.01 ± 1.06 | 54.13 ± 0.31 | 60.11 ± 1.90 | 68.99 ± 1.88 | 78.03 ± 1.51 | – | 382 | 125 | IC50 [3]: 382 µM; inhibition at 125 µg/mL [3]: 49.3 ± 2.32%; inhibition at 250 µg/mL [3]: 56.1 ± 1.51%; inhibition at 500 µg/mL [3]: 62.5 ± 1.37%; inhibition at 1000 µg/mL [3]: 70.1 ± 1.4%; inhibition at 125 µg/mL [4]: 49.13 ± 0.31%; inhibition at 250 µg/mL [4]: 55.5 ± 0.8%; inhibition at 500 µg/mL [4]: 62 ± 0.78%; inhibition at 1000 µg/mL [4]: 69.1 ± 2.01%; inhibition at 62.5 µg/mL [5]: 43.2 ± 3.01%; inhibition at 62.5 µg/mL [6]: 43 ± 1.06%
O=COC(O)O [Compound XI, methanetriol mano formate] | 46.98 ± 2.49 % | 54.13 ± 2.17 | 63.21 ± 1.69 | 70.91 ± 2.11 | 81.90 ± 0.73 | 95 | 46.22 ± 0.60 | 54.15 ± 1.28 | 62.13 ± 1.08 | 71.17 ± 2.14 | 80.41 ± 2.16% | 95 | 46.23 ± 1.49 | 54.30 ± 1.15 | 61.04 ± 2.38 | 70.15 ± 1.16 | 79.17 ± 0.53 | 815 | 815 | 98 | inhibition at 250 µg/mL ([3]; 250 μg/mL, n = 3): 64.5 ± 3.04%; inhibition at 500 µg/mL ([3]; 500 μg/mL, n = 3): 71.2 ± 2.42%; inhibition at 1000 µg/mL ([3]; 1000 μg/mL, n = 3): 81.4 ± 2.51%; inhibition at 125 µg/mL ([4]; 125 μg/mL, n = 3): 57.1 ± 1.31%; inhibition at 250 µg/mL ([4]; 250 μg/mL, n = 3): 63.7 ± 2.24%; inhibition at 500 µg/mL ([4]; 500 μg/mL, n = 3): 71.2 ± 1.31%; inhibition at 1000 µg/mL ([4]; 1000 μg/mL, n = 3): 81.3 ± 1.41%; inhibition at 62.5 µg/mL ([5]; 62.5 μg/mL, n = 3): 48.2 ± 3.34%; inhibition at 62.5 µg/mL ([6]; 62.5 μg/mL, n = 3): 48 ± 2.06%
CC(C)C(C(=O)O)c1ccc(C(C(=O)O)C(C)C)cc1 (stereo not shown) [Compound XII] | 47.51 ± 1.19 % | 56.10 ± 2.05 | 66.94 ± 1.11 | 74.25 ± 1.06 | 79.07 ± 1.43 | 60 | 51.02 ± 1.30 | 61.75 ± 1.78 | 71.13 ± 1.31 | 78.17 ± 1.04 | 86.54 ±2.16% | 62 | 50.51 ± 1.19 | 60.20 ± 3.05 | 71.44 ± 2.11 | 77.15 ± 1.06 | 86.07 ± 1.43 | 198 | 216 | 92 | inhibition at 125 µg/mL ([3]; 125 μg/mL, n = 3): 61.2 ± 1.71%; inhibition at 250 µg/mL ([3]; 250 μg/mL, n = 3): 69.3 ± 1.38%; inhibition at 500 µg/mL ([3]; 500 μg/mL, n = 3): 76.2 ± 1.01%; inhibition at 1000 µg/mL ([3]; 1000 μg/mL, n = 3): 84.4 ± 1.36%; inhibition at 125 µg/mL ([4]; 125 μg/mL, n = 3): 64.4 ± 1.85%; inhibition at 250 µg/mL ([4]; 250 μg/mL, n = 3): 77.1 ± 2.26%; inhibition at 500 µg/mL ([4]; 500 μg/mL, n = 3): 85.1 ± 2.06%; inhibition at 1000 µg/mL ([4]; 1000 μg/mL, n = 3): 93.89 ± 0.81%; inhibition at 62.5 µg/mL ([5]; 62.5 μg/mL, n = 3): 52.5 ± 1.47%; inhibition at 62.5 µg/mL ([6]; 62.5 μg/mL, n = 3): 50.4 ± 1.11%
COc1ccc2c3c1O[C@H]1C[C@@H](O)C=C[C@@]31CCN(C)C2 [Galanthamine, reference compound] | – | – | – | – | – | – | – | – | – | – | – | – | – | – | – | – | – | – | – | – | inhibition at 125 µg/mL [4]: 64.4 ± 1.85%; inhibition at 500 µg/mL [4]: 85.1 ± 2.06%; inhibition at 1000 µg/mL [4]: 93.89 ± 0.81%
